Source: the supplement of paper PMC12613149
Where a name gives a salt, the structure may show the parent alone.

How the values were obtained:
[1] = collision cross section (TIMS, N2 drift gas) of the primary ion; higher = larger gas-phase ion size
[2] = reversed-phase LC retention time (C18, 15 min MeOH gradient); higher = more hydrophobic / later elution
[3] = ionization mode: ESI+, ion species: [M+H]+
[4] = ionization mode: ESI-, ion species: [M-H]-
[5] = ionization mode: ESI+, ion species: [M]+

collision cross section [1, 3] | reversed-phase LC retention time [2, 3] | collision cross section [1, 4] | reversed-phase LC retention time [2, 4] | collision cross section [1, 5] | reversed-phase LC retention time [2, 5] | Compound
175.13 Å² | 12.6 min |  |  |  |  | C[C@]12CCC3=C4CCC(=O)C=C4CC[C@H]3[C@@H]1CC[C@@]2(O)CC#N [Dienogest]
198.45 Å² | 12.1 min |  |  |  |  | COc1ccc([C@@H]2Sc3ccccc3N(CCN(C)C)C(=O)[C@@H]2OC(C)=O)cc1 [Diltiazem]
164.03 Å² | 10 min | 167.03 Å² | 9.95 min |  |  | COCCN(C(=O)CS(=O)(=O)O)c1c(C)cccc1C [Dimethachlor ESA]
155.28 Å² | 11.3 min | 161.26 Å² | 10.5 min |  |  | COCC(C)N(C(=O)C(=O)O)c1c(C)csc1C (stereo not drawn) [Dimethenamid OA]
 |  | 162.37 Å² | 8.33 min |  |  | COC(=O)c1cc(C(=O)OC)cc(S(=O)(=O)O)c1 [Dimethyl-5-sulfoisophthalate]
151.98 Å² | 6.95 min |  |  |  |  | Cc1c(N(C)C)c(=O)n(-c2ccccc2)n1C [Dimethylaminophenazone]
147.68 Å² | 10.6 min |  |  |  |  | COc1cc2ccc(=O)oc2c(OC)c1OC [Dimethylfraxetin]
178.04 Å² | 15.3 min |  |  |  |  | CNC(=O)/C(=N/OC)c1ccccc1COc1cc(C)ccc1C [Dimoxystrobin]
202.21 Å² | 16.8 min |  |  |  |  | CCN(CCC#N)c1ccc(N=Nc2c(Br)cc([N+](=O)[O-])cc2Br)cc1 [Disperse Orange 61]
 |  | 197.93 Å² | 10.2 min |  |  | C[C@H]1c2cccc(O)c2C(=O)C2=C(O)[C@]3(O)C(=O)C(C(N)=O)=C(O)[C@@H](N(C)C)[C@@H]3[C@@H](O)[C@@H]21 [Doxycycline]
148.63 Å² | 16.7 min | 154.28 Å² | 17.1 min |  |  | Cc1ccc(O)c(-n2nc3ccccc3n2)c1 [Drometrizole]
177.44 Å² | 15.1 min |  |  |  |  | CC(=O)[C@H]1CC[C@H]2[C@@H]3C=CC4=CC(=O)CC[C@@]4(C)[C@@H]3CC[C@]12C [Dydrogesterone]
168.93 Å² | 15.4 min | 167.59 Å² | 15.8 min |  |  | O=C1Nc2ccc(Cl)cc2C(C#CC2CC2)(C(F)(F)F)O1 (stereo not drawn) [Efavirenz]
146.78 Å² | 5.75 min |  |  |  |  | Nc1nc(=O)n([C@@H]2CS[C@H](CO)O2)cc1F [Emtricitabine]
187.31 Å² | 11.6 min | 193.85 Å² | 12.2 min |  |  | CCOC(=O)[C@H](CCc1ccccc1)N[C@@H](C)C(=O)N1CCC[C@H]1C(=O)O [Enalapril]
216.71 Å² | 17.5 min | 224.72 Å² | 16.6 min |  |  | CC1(C)[C@@H](O)CC[C@]2(C)[C@H]3C(=O)C=C4[C@@H]5C[C@@](C)(C(=O)O)CC[C@]5(C)CC[C@@]4(C)[C@]3(C)CC[C@@H]12 [Enoxolone]
186.48 Å² | 8.4 min |  |  |  |  | CCN1CCN(c2cc3c(cc2F)c(=O)c(C(=O)O)cn3C2CC2)CC1 [Enrofloxacin]
206.28 Å² | 11.2 min | 198.36 Å² | 10 min |  |  | CCCCc1ncc(/C=C(\Cc2cccs2)C(=O)O)n1Cc1ccc(C(=O)O)cc1 [Eprosartan]
259.69 Å² | 13 min |  |  |  |  | CC[C@H]1OC(=O)[C@H](C)[C@@H](O[C@H]2C[C@@](C)(OC)[C@@H](O)[C@H](C)O2)[C@H](C)[C@@H](O[C@@H]2O[C@H](C)C[C@H](N(C)C)[C@H]2O)[C@](C)(O)C[C@@H](C)C(=O)[C@H](C)[C@@H](O)[C@]1(C)O [Erythromycin]
 |  | 176.65 Å² | 11.4 min |  |  | C[C@]12CC[C@@H]3c4ccc(O)cc4CC[C@H]3[C@@H]1C[C@@H](O)[C@@H]2O [Estriol]
148.66 Å² | 14.2 min |  |  |  |  | CCOC(=O)c1ccc(N(C)C)cc1 [Ethyl 4-(dimethylamino)benzoate]
 |  | 133.39 Å² | 11.3 min |  |  | CCOC(=O)c1ccc(O)cc1 [Ethylparaben]
250.37 Å² | 11.6 min |  |  |  |  | COc1cc(C2c3cc4c(cc3C(OC3OC5COC(C)OC5C(O)C3O)C3COC(=O)C23)OCO4)cc(OC)c1O (stereo not drawn) [Etoposide]
 |  | 222.47 Å² | 11.9 min |  |  | COc1cc(C2c3cc4c(cc3C(OC3OC5COC(C)OC5C(O)C3O)C3COC(=O)C23)OCO4)cc(OC)c1O (stereo not drawn) [Etoposide_1]
 |  | 241.7 Å² | 11.7 min |  |  | COc1cc(C2c3cc4c(cc3C(OC3OC5COC(C)OC5C(O)C3O)C3COC(=O)C23)OCO4)cc(OC)c1O (stereo not drawn) [Etoposide_2]

Continued, compound first:

Compound | collision cross section [1, 3] | reversed-phase LC retention time [2, 3] | collision cross section [1, 4] | reversed-phase LC retention time [2, 4] | collision cross section [1, 5] | reversed-phase LC retention time [2, 5]
CCN(CC)c1ccccc1 [Diethylphenylamine] | 129.02 Å² | 6.93 min |  |  |  | 
CC/C(=C(/CC)c1ccc(O)cc1)c1ccc(O)cc1 [Diethylstilbestrol] |  |  | 175.03 Å² | 14.5 min |  | 
CC1COC(Cn2cncn2)(c2ccc(Oc3ccc(Cl)cc3)cc2Cl)O1 (stereo not drawn) [Difenoconazole] | 202.11 Å² | 16.1 min |  |  |  | 
O=C(NC(=O)c1c(F)cccc1F)Nc1ccc(Cl)cc1 [Diflubenzuron] | 163.34 Å² | 15.1 min | 167.93 Å² | 15.5 min |  | 
O=C(Nc1ccc(F)cc1F)c1cccnc1Oc1cccc(C(F)(F)F)c1 [Diflufenican] | 189.49 Å² | 16.2 min | 181.03 Å² | 16.7 min |  | 
CC(C)CCCCOC(=O)c1ccccc1C(=O)OCCCCC(C)C [Diisoheptyl phthalate] | 204.46 Å² | 18.6 min |  |  |  | 
CC(C)OC(=O)CCCCCCCCC(=O)OC(C)C [Diisopropyl sebacate] | 172.78 Å² | 17 min |  |  |  | 
COCCN(C(=O)CCl)c1c(C)cccc1C [Dimethachlor] | 152.09 Å² | 13.3 min |  |  |  | 
COCC(C)N(C(=O)CS(=O)(=O)O)c1c(C)csc1C (stereo not drawn) [Dimethenamid ESA] | 166.05 Å² | 10.9 min | 168.76 Å² | 10.9 min |  | 
COCC(C)N(C(=O)CCl)c1c(C)csc1C (stereo not drawn) [Dimethenamid] | 155.6 Å² | 14 min |  |  |  | 
CC(C1=C(CCN(C)C)Cc2ccccc21)c1ccccn1 (stereo not drawn) [Dimethindene] | 171.03 Å² | 10.4 min |  |  |  | 
CNC(=O)CSP(=S)(OC)OC [Dimethoate] | 141.81 Å² | 9.08 min |  |  |  | 
CCCCCCCCCCCCCCCCCC[N+](C)(C)CCCCCCCCCCCCCCCCCC [Dimethyldioctadecylammonium] |  |  |  |  | 272.56 Å² | 21.1 min
CCC(C)c1cc([N+](=O)[O-])cc([N+](=O)[O-])c1O (stereo not drawn) [Dinoseb] |  |  | 149.61 Å² | 12.3 min |  | 
C/N=C(/NCC1CCOC1)N[N+](=O)[O-] (stereo not drawn) [Dinotefuran] | 141.96 Å² | 6.27 min | 146.7 Å² | 6.46 min |  | 
CC(C)(C)c1cc([N+](=O)[O-])cc([N+](=O)[O-])c1O [Dinoterb] |  |  | 149.2 Å² | 12.5 min |  | 
CCCCC(CC)COC(=O)CC(C(=O)OCC(CC)CCCC)S(=O)(=O)O (stereo not drawn) [Dioctylsulfosuccinate] | 222.09 Å² | 17.1 min | 208.23 Å² | 17.1 min |  | 

Compound | collision cross section [1, 3] | reversed-phase LC retention time [2, 3] | collision cross section [1, 4] | reversed-phase LC retention time [2, 4] | collision cross section [1, 5] | reversed-phase LC retention time [2, 5]
CN(C)CCOC(c1ccccc1)c1ccccc1 [Diphenhydramine] | 162.95 Å² | 11.6 min |  |  |  | 
O=P(O)(Oc1ccccc1)Oc1ccccc1 [Diphenylphosphate] | 155.07 Å² | 17.6 min | 152.14 Å² | 10.8 min |  | 
CCCCCCCCCCCOC(=O)c1ccccc1C(=O)OCCCCCCCCCCC [Diundecylphthalate] | 241.8 Å² | 20.8 min |  |  |  | 
O=C1CCCCCCCCCCCN1 [Dodecane-12-lactam] | 148.39 Å² | 13.9 min |  |  |  | 
O=C(O)CCCCCCCCCCC(=O)O [Dodecanedioic acid] | 156.8 Å² | 14.7 min | 153.38 Å² | 8.22 min |  | 
CCCCCCCCCCCCOS(=O)(=O)O [Dodecyl sulfate] |  |  | 166.94 Å² | 16.3 min |  | 
CCCCCCCCCCCCc1ccccc1S(=O)(=O)O [Dodecylbenzenesulfonic acid] |  |  | 185.13 Å² | 17.3 min |  | 
CCCCCCCCCCCC[N+](C)(C)C [Dodecyltrimethylammonium] |  |  |  |  | 176.31 Å² | 15.2 min
CC1CN(C2CCCCCCCCCCC2)CC(C)O1 (stereo not drawn) [Dodemorph] | 175.75 Å² | 13.3 min |  |  |  | 
CNCCC(Oc1cccc2ccccc12)c1cccs1 (stereo not drawn) [Duloxetine] | 171.35 Å² | 13 min |  |  |  | 
C/C=C1\N(C)C(C)CC1(c1ccccc1)c1ccccc1 (stereo not drawn) [EDDP] | 166.21 Å² | 11.5 min |  |  |  | 
CC[C@H](C)[C@H]1O[C@]2(C=C[C@@H]1C)C[C@@H]1C[C@@H](C/C=C(\C)[C@@H](O[C@H]3C[C@H](OC)[C@@H](O[C@H]4C[C@H](OC)[C@@H](NC)[C@H](C)O4)[C@H](C)O3)[C@@H](C)/C=C/C=C3\CO[C@@H]4[C@H](O)C(C)=C[C@@H](C(=O)O1)[C@]34O)O2 [Emamectin B1a] | 283.49 Å² | 17 min | 296.31 Å² | 18.9 min |  | 
Fc1ccc(C2(Cn3cncn3)OC2c2ccccc2Cl)cc1 (stereo not drawn) [Epoxiconazole] | 176.09 Å² | 14.9 min |  |  |  | 
CCCCc1ncc(C(=O)O)n1Cc1ccc(C(=O)O)cc1 [Eprosartan acid] |  |  | 178.16 Å² | 7.27 min |  | 
CCCCCCCC/C=C\CCCCCCCCCCCC(N)=O [Erucamide] | 200.01 Å² | 19.6 min |  |  |  | 
CCOP(=S)(OCC)SCSP(=S)(OCC)OCC [Ethion] | 176.99 Å² | 16.9 min |  |  |  | 
CCOC1Oc2ccc(OS(C)(=O)=O)cc2C1(C)C (stereo not drawn) [Ethofumesate] | 166.62 Å² | 13.8 min |  |  |  | 
